For series [1], the system named is Rat2 fibroblasts stably transformed with v-Src/Hu c-Src fusion gene. Put plainly: Anchorage Independent Src-transformed Fibroblast Proliferation Assay. The series is classed as cell-based. The conditions noted are these: Rattus norvegicus, src dependent suspension growth, MTS, read-out: Src cells IC50.
The target in the next series is T1, Src (Homo sapiens, UniProt P12931).
T1 construct: purchased Upstate Biotechnologies, Lake Placid, N.Y
Put plainly: Src Kinase Assay (ELISA or Delfia format, cdc2 substrate peptide). The series is classed as biochemical. The conditions noted are these: read-out: Src enzyme IC50. In general terms: In an ELISA, binding on a coated surface is turned into a signal by an enzyme label.

Series [2] has as its system transient focal ischemia. Kind of series: IP administration in rat model of transient focal ischemia (90 min MCA occlusion, 48 h reperfusion). The class given is in vivo, Wistar rats. As to conditions: for recovery from stroke-induced neurological deficits: 85 min after onset of ischemia, evaluated over 48 hours. Here is the method: Wistar rats were subjected to a 90 min occlusion of the middle cerebral artery (MCA) using an intraluminal suture approach as described by Longa et al., Stroke 1989, 20:84 followed by reperfusion for 48 hours. […] Following reperfusion, the animals were evaluated over a 48 hour period for neurological function deficit and weight loss/gain. Infarct size was measured following sacrifice at 48 hours post MCA occlusion.

The subject of series [3] is transient focal ischemia. Put plainly: IV administration in rat model of transient focal ischemia (90 min MCA occlusion, 48 h reperfusion). The series is classed as in vivo, Wistar rats. Here is the method:
Following reperfusion, the animals were evaluated over a 48 hour period for neurological function deficit and weight loss/gain. Brain tissue infarction volume by were reduced by 22%, 53% and 42%, respectively. […] Thus, compounds of the present invention provide neuroprotection following focal ischemia.

Series [4] relates to transient focal ischemia. Put plainly: Therapeutic window in transient focal ischemia model. The series is classed as in vivo, Wistar rats. Here is the method: Therapeutic Window In this model of transient focal ischemia three studies were conducted to examine therapeutic window. Wistar rats were subjected to 90 minute occlusion of the MCA followed by reperfusion as described above. […] Volume of infarcted tissue was measured by histological staining.

The subject of series [5] is vascular permeability in the ischemic striatum. Kind of series: Post ischemic vascular permeability (Evans Blue extravasation). The class given is in vivo, Wistar rats. The conditions noted are these: single IV bolus 30 min after onset of ischemia at 3, 10 and 30 mg/kg (dose of the value not stated), 24 hours reperfusion. Here is the method: Post Ischemic Vascular Permeability Wistar rats were subjected to a 90 min occlusion of the middle cerebral artery (MCA) using an intraluminal suture approach as described by Longa et al., Stroke 1989, 20:84 followed by reperfusion for 24 hours. […] Two hours before sacrifice animals received an IV injection of 2% Evans Blue in saline. Brains were perfused with saline and the striatum dissected. Evans Blue was extracted and quantified by spectrofluorometer based on external standards. Vascular permeability in the ischemic striatum was reduced as evidenced by a 60% decrease of Evans Blue extravasation. Thus, compounds of the present invention reduce vascular permeability associated with ischemic injury.

In series [6] the test system is permanent focal ischemia. Put plainly: Permanent focal ischemia, model of extreme severity (intraluminal suture occlusion of internal carotid artery). As to conditions: relatively short outcome (28 hours). The class given is in vivo, rat. Here is the method: Permanent Focal Ischemia Example 1 was also evaluated in two rat models of permanent focal ischemia.
Series [7] has as its system permanent focal ischemia. Kind of series: Permanent focal ischemia with extensive infarction to sensorimotor cortex, 21 day neurological assessment. The conditions noted are these: IV bolus 10 mg/kg at 90 min, 4 hours later, and 24 and 28 hours later (total 40 mg/kg); Day 21. The series is classed as in vivo, Wistar rats. Here is the method: Wistar rats (n=5 per group) were subjected to focal ischemic stroke model that results in a extensive ischemia to the sensorimotor cortex substantially as described by Chen et al., (Stroke 17:738, 1986). […] Results were evaluated by Generalized Regression Model to determine statistical significance of the differences between slopes and to compare final neurological outcome after 21 days. […] Thus, compounds of the present invention provide long-term improvement of neurological deficits.

This note sets out measurements from patent US20040229880A1, “4-[(2,4-dichloro-5-methoxyphenyl)amino]-6-alkoxy-3-quinolinecarbonitriles for the treatment of ischemic injury” (Wyeth, priority 2003, published 2004).

T1 sequence (P12931 whole entry): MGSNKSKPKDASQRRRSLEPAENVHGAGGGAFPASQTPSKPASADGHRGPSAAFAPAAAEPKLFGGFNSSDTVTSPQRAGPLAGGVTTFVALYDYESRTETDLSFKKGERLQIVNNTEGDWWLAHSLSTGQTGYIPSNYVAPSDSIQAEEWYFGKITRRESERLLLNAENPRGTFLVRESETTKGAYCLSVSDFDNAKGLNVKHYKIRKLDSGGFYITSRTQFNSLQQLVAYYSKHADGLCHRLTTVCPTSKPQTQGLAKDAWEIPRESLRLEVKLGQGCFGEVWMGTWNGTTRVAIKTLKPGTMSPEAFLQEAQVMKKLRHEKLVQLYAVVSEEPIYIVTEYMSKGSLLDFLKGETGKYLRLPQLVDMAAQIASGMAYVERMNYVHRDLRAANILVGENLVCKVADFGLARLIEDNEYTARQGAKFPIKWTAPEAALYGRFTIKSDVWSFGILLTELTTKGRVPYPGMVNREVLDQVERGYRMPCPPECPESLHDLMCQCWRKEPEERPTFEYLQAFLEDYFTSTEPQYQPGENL

A word on the IC50: it is the point on the concentration scale where inhibition reaches its midpoint. The term melting point denotes the temperature, or range, at which the solid turns liquid. `CCOc1cc2c(Nc3cc(OC)c(Cl)cc3Cl)c(C#N)cnc2cc1OCCCN1CCN(C)CC1` [Example 9, 4-[(2,4-Dichloro-5-methoxyphenyl)amino]-6-ethoxy-7-[3-(4-methylpiperazin-1-yl)propoxy]quinoline-3-carbonitrile] yielded a melting point of 137 to 138 °C. Besides, the IC50 in series [1] stood at 86 nM.
`CCOc1cc2c(Nc3cc(OC)c(Cl)cc3Cl)c(C#N)cnc2cc1OCCCN1CCN(CC)CC1` [Example 11, 4-[(2,4-Dichloro-5-methoxyphenyl)amino]-6-ethoxy-7-[3-(4-ethylpiperazin-1-yl)propoxy]quinoline-3-carbonitrile] came in with a melting point of 127 to 130 °C. The IC50 at Src is 0.85 nM. Also, in [1], the IC50 amounted to 160 nM.
`COc1cc(Nc2c(C#N)cnc3cc(OCCN4CCN(C)CC4)c(OC)cc23)c(Cl)cc1Cl` [Example 3, 4-[(2,4-Dichloro-5-methoxyphenyl)amino]-6-methoxy-7-[2-(4-methyl-1-piperazinyl)ethoxy]-3-quinolinecarbonitrile] had a melting point of 165 to 167 °C. Further, the IC50 on Src came out at 4 nM. In addition, in [1], the IC50 came out at 380 nM.
For `CCOc1cc2c(Nc3cc(OC)c(Cl)cc3Cl)c(C#N)cnc2cc1OCC1CCN(C)CC1` [Example 10, 4-[(2,4-Dichloro-5-methoxyphenyl)amino]-6-ethoxy-7-[(1-methylpiperidin-4-yl)methoxy]quinoline-3-carbonitrile] the same measures were 182 to 186 °C, 2.1 nM and 176 nM.
For `CCN1CCN(CCOc2cc3ncc(C#N)c(Nc4cc(OC)c(Cl)cc4Cl)c3cc2OC)CC1` [Example 4, 4-[(2,4-Dichloro-5-methoxyphenyl)amino]-7-[2-(4-ethyl-1-piperazinyl)ethoxy]-6-methoxy-3-quinolinecarbonitrile] the same measures were 101 to 105 °C, 3.6 nM and 600 nM.
For `CCOc1cc2c(Nc3cc(OC)c(Cl)cc3Cl)c(C#N)cnc2cc1OCCN1CCN(C)CC1` [Example 13, 4-[(2,4-Dichloro-5-methoxyphenyl)amino]-6-ethoxy-7-[2-(4-methyl-1-piperazinyl)ethoxy]quinoline-3-carbonitrile] the same measures were 141 to 143 °C, 1.5 nM and 146 nM.
With `CCCN1CCN(CCCOc2cc3ncc(C#N)c(Nc4cc(OC)c(Cl)cc4Cl)c3cc2OC)CC1` [Example 15, 4-[(2,4-Dichloro-5-methoxyphenyl)amino]-6-methoxy-7-[3-(4-propyl-1-piperazinyl)propoxy]-3-quinolinecarbonitrile], in [1], the IC50 worked out at 160 nM.
`CCN1CCC(COc2cc3ncc(C#N)c(Nc4cc(OC)c(Cl)cc4Cl)c3cc2OC)CC1` [Example 8, 4-[(2,4-Dichloro-5-methoxyphenyl)amino]-7-[(1-ethylpiperidin-4-yl)methoxy]-6-methoxyquinoline-3-carbonitrile] yielded a melting point of 192 to 195 °C. Also, the IC50 on Src came out at 2.1 nM. Further, the IC50 in [1] amounted to 170 nM.
As for `CCN1CCN(CCCOc2cc3ncc(C#N)c(Nc4cc(OC)c(Cl)cc4Cl)c3cc2OC)CC1` [Example 2, 4-[(2,4-Dichloro-5-methoxyphenyl)amino]-7-[3-(4-ethyl-1-piperazinyl)propoxy]-6-methoxy-3-quinolinecarbonitrile], the IC50 in series [1] amounted to 130 nM.
With `COc1cc(Nc2c(C#N)cnc3cc(OCCCN4CCN(C)CC4)c(OC)cc23)c(Cl)cc1Cl` [Example 1, 4-[(2,4-Dichloro-5-methoxyphenyl)amino]-6-methoxy-7-[3-(4-methyl-1-piperazinyl)propoxy]-3-quinolinecarbonitrile], the IC50 in [1] turned out to be 100 nM. In addition, the “recovery from stroke-induced neurological deficits” value in the series on transient focal ischemia [2] (5 mg/kg ip) and in the series on transient focal ischemia [2] (45 mg/kg ip) was “significantly improved” each time. The “volume of infarcted brain tissue, statistical significance of reduction” value with transient focal ischemia [2] (45 mg/kg ip, 48 hours post MCA occlusion) was “statistical significance was achieved”. Moreover, in the series with transient focal ischemia [2] (ip, over 48 hours), the body weight recovery result is given as “Improvement in body weight recovery was observed”. The “volume of infarcted brain tissue” value in the series with transient focal ischemia [2] (most doses (1.5, 5, 15, or 45 mg/kg ip), 48 hours post MCA occlusion) is “Reductions in the volume of infarcted brain tissue were observed”. Further, the entries for the “Mean Motor Deficit Score at 24 hrs” value in the series on transient focal ischemia [3] (3 mg/kg iv), in the series with transient focal ischemia [3] (10 mg/kg iv) and with transient focal ischemia [3] (30 mg/kg iv) were 3.83 ± 0.3, 4.08 ± 0.08 and 4.08 ± 0.23, respectively. The “Mean Motor Deficit Score at 48 hrs” value in the series on transient focal ischemia [3] (3 mg/kg iv) turned out to be 3.25 ± 0.37; with transient focal ischemia [3] (10 mg/kg iv) it was 3.67 ± 0.22; in the series on transient focal ischemia [3] (30 mg/kg iv) it was 3.67 ± 0.28. The “Brain tissue infarction volume reduced by” value with transient focal ischemia [3] (3 mg/kg iv, 30 min after MCA occlusion) amounted to 22%; in the series with transient focal ischemia [3] (10 mg/kg iv, 30 min after MCA occlusion), 53%; in the series on transient focal ischemia [3] (30 mg/kg iv, 30 min after MCA occlusion), 42%. In the series on transient focal ischemia [3] (all three doses (3, 10 and 30 mg/kg iv)), the stroke-induced neurological deficits entry is recorded as “significantly reduced”. The Post-stroke weight loss result in the series on transient focal ischemia [3] (iv, 30 min after MCA occlusion) is recorded as “significantly reduced”. The “Brain tissue infarction (as a % of vehicle treated)” value with transient focal ischemia [4] (single 10 mg/kg dose administered between 30 min and 4 hours after the ischemic injury) is recorded as “statistically reduced”. In addition, in the series on transient focal ischemia [4] (single 10 mg/kg dose administered up to 5 hours post-stroke), the “protection from neurological deficits (as a percent of vehicle treated)” value is reported as “Statistically significant protection”. For the same compound, the “protection from ischemia-induced weight loss (as a % of vehicle treated)” value in the series on transient focal ischemia [4] (single 10 mg/kg dose up to 5 hours post stroke) is on record as “statistically significant protection”. Further, the “decrease of Evans Blue extravasation in the ischemic striatum” value in [5] was determined as 60%. In addition, the “effect in permanent focal ischemia model of extreme severity” value with permanent focal ischemia [6] was “little or no effect”. Further, the “Behavioral Score (sensorimotor deficits) as compared to a control group” value in the series with permanent focal ischemia [7] is on record as “statistically significant improvement”.
The compound `CCOc1cc2c(Nc3cc(OC)c(Cl)cc3Cl)c(C#N)cnc2cc1OCCCC1CCN(C)CC1` [Example 12, 4-[(2,4-Dichloro-5-methoxyphenyl)amino]-6-ethoxy-7-[3-(1-methylpiperidin-4-yl)propoxy]quinoline-3-carbonitrile] had a melting point of 148 to 151 °C. Further, at Src, the IC50 was 1.4 nM. The IC50 in series [1] is 96 nM.
`CCOc1cc2c(Nc3cc(OC)c(Cl)cc3Cl)c(C#N)cnc2cc1OCCC1CCN(C)CC1` [Example 14, 4-[(2,4-Dichloro-5-methoxyphenyl)amino]-6-ethoxy-7-[2-(1-methylpiperidin-4-yl)ethoxy]quinoline-3-carbonitrile] had a melting point of 174 to 176 °C. Moreover, the IC50 on Src amounted to 1.9 nM. The IC50 in series [1] was 267 nM.
